Assay results reported in patent publication US20110028391A1, “Use of GLP-1 Peptides” (Novo Nordisk A/S, priority 1996, published 2011).
Where two headings read alike, the source gives them in different places. No end group written: not given here.

Tests used:
Mice [1] = experiment: Appetite suppression in mice: Complan formula milk consumption after subcutaneous injection (Example 4); format: in vivo; conditions: 30 min after injection, p<0.001
Mice [2] = experiment: Appetite suppression in mice: 20% sucrose consumption, tested immediately after ip injection (Example 2); format: in vivo; conditions: 85 micrograms (equivalent to 3.4 mg/kg) in sterile saline, 10 minute test immediately after injection, versus vehicle control, p-value 0.002
Method: Mice were deprived of their normal food for two days and given free access to a 20% sucrose solution on the first day of food deprivation. After the two day food deprivation period, the mice were injected intraperitoneally with 0.5 ml of a solution containing the test substance. Immediately after injection, individual mice were placed in one of eight 15 cm square test boxes with a stainless steel grid floor and a glass drinking tube which projected into the box. […] Consumption of the sucrose solution was measured over a 10 minute period by electronically recording the total amount of contact with the sucrose solution during the test session. The degree of appetite suppression produced by a given test substance was determined by statistical comparison of the mean duration of sucrose consumption by control (vehicle treated) mice with that of mice treated with a test substance. The degree of appetite suppression in a treated group of mice was expressed as percent difference between the test and control group's response duration means. […]

Healthy human volunteers = experiment: Double-blind crossover trial of iv infusion: food intake, satiety, hunger, fullness and appetite in normal human subjects; format: in vivo; conditions: iv infusion 50 pmol/(kg·h)
Text: Healthy human volunteers (20 subjects) were in a double-blind crossover trial given an iv infusion of 50 pmol/(kg·h) of GLP-1(7-36)amide or saline on separate, but otherwise identical experimental days. The infusion was started at 9.00 and lasted until 15.00. At 9.45 the subjects received a fixed amount of breakfast and at 14.15 they had lunch of an identical composition but ad libitum. The subjects rated their feeling of satiety, hunger, fullness and appetite on a visual analogue scale every half hour.

rats = conditions: cited from earlier work
[3] = 9.00 to 15.00, 20 subjects, rated every half hour, p=0.007

Question: Which “Suppression of feeding (Complan consumption)” value (Mice [1]; 1 mg/kg) does the source give for GLP-1(7-36)amide here?
Answer: 45%

Question: And the “Maximum effect, suppression of feeding (Complan consumption)” value (Mice [1]; 20 mg/kg (highest dose tested))?
Answer: 60%

Question: What about the “Suppression of sucrose consumption” value (Mice [2]) of the same substance?
Answer: 60%

Question: Which “Satiety (visual analogue scale) versus saline” value (Healthy human volunteers; 9.00 to 15.00, 20 subjects, rated every half hour, p=0.006) does the source give for “GLP-1: proglucagon fragment 72-108 per b6; as named in the cited rat studies (b7); in b63 it is shorthand for GLP-1(7-36)amide” here?
Answer: GLP-1>Saline

Question: What about the “Appetite (visual analogue scale) versus saline” value (Healthy human volunteers; [3]) of the same substance?
Answer: GLP-1<Saline

Question: What about the “Hunger (visual analogue scale) versus saline” value (Healthy human volunteers; [3]) of the same substance?
Answer: GLP-1<Saline

Question: And the “Fullness (visual analogue scale) versus saline” value (Healthy human volunteers; 9.00 to 15.00, 20 subjects, rated every half hour, p=0.010)?
Answer: GLP-1>Saline

Question: What about the Energy intake (Healthy human volunteers; ad libitum lunch, saline 4.3 MJ, p-value 0.009) of the same substance?
Answer: 3.9 mJ

Question: And the “Effect on food intake” value (rats; administered intracerebroventricularly, Tang-Christensen et al. 1996)?
Answer: profound effect

Question: What about the “Effect on food intake” value (rats; administered intracerebroventricularly, Turton et al. 1996) of the same substance?
Answer: profound effect

Question: What about the “Effect on food intake” value (rats; peripheral administration, Turton et al. 1996) of the same substance?
Answer: inactive

Question: What about the “Effect on food intake” value (rats; peripherally administered, Tang-Christensen et al. 1996) of the same substance?
Answer: no significant effect

Question: With “GLP-1(1-36)amide (HDEFERHAEGTFTSDVSSYLEGQAAKEFIAWLVKGR-NH2; UniProt P01275 92-127, looked up, fragment) [GLP-1 fragment 1-36, C-terminal amide]” as the substance, how does the “Effect on food intake” value (rats; Tang-Christensen et al. 1996, route not stated) read?
Answer: no effect
